Assay results: patent publication US20250346582A1, “SPLEEN TYROSINE KINASE INHIBITORS AND METHODS OF USE THEREOF” (THE BOARD OF TRUSTEES OF THE UNIVERSITY OF ILLINOIS, priority 2022, published 2025)

Key:
[1] = tested on: MV4-11 cells; assay: Generation of drug-resistant MV4-11 cells under chronic treatment; assay type: cell-based; conditions: inhibitor increased from 0.5 to 5 μM over 10 weeks
Protocol: Then the concentration was maintained at 5 μM.

[2] = molecular target: T1, scaffolding function of Syk (Homo sapiens, UniProt P43405); assay: Co-immunoprecipitation with Syk, entospletinib-resistant MV4-11 cells; assay type: cell-based; conditions: 5 μM
T1 construct: host or cells: MV4-11 AML cells (naive and entospletinib-resistant)
Protocol: (§1) MV-4-11 cells were collected by centrifugation, washed twice with phosphate phosphate-buffered saline (PBS) and resuspended in the immunoprecipitation (IP) buffer (50 mM HEPES, pH 7.4, 150 mM NaCl, 1 mM MgCl2, 1 mM EGTA, and 0.25 mM GTP) with 0.2-0.5% Triton X-100 and a protease inhibitor mix (Sigma-Aldrich). Lysates were prepared after 5 min of incubation on ice by repeated pipetting and centrifugation for 10 min at 12,000 g and at 4° C. For immunoprecipitation, the SYK-specific antibody was immobilized onto 100 μl Dynabeads/protein A (ThermoFisher) and the excess antibody was washed away by placing the tube in a DynaMag magnet and removing the supernatant. The resuspended beads were then incubated with the cell extract supernatant containing 500 μg of proteins for 1 h at 4° C. The immunoprecipitates were rinsed three times with the IP buffer and eluted with 30 μl of the sample buffer containing sodium dodecyl sulfate (SDS). For detection of proteins in total extracts (i.e., Input), 30 μg of the sample was loaded in each gel lane for western blot analysis.

[3] = molecular target: T1, scaffolding function of Syk; assay: Co-immunoprecipitation with Syk, naïve MV4-11 cells; assay type: cell-based; conditions: 5 μM
Protocol: as §1

[4] = molecular target: T2, Syk-cSH2 E164Q (Homo sapiens, UniProt P43405, E164Q); assay: Fluorescence quenching vesicle binding assay, Syk-cSH2 E164Q mutant; conditions: POPC/POPS/PIP3/dabsyl-PE vesicles
T2 construct: polyhistidine (N); made in house; host or cells: Escherichia coli BL21 (DE3) pLysS
Protocol: The membrane-binding assay is based on fluorescence quenching of EGFP fused to a SH2 domain by a dark quencher containing lipid, dabsyl-PE, incorporated in lipid vesicles. The plate reader assay was performed using the Synergy™ Neo spectrofluorometer at 25° C. Nontreated black polystyrene 96-well plates (Corning) were used. Protein (10-50 nM) with the increasing concentration of vesicles with a given lipid composition in 20 mM Tris buffer, pH 7.4, containing 0.16 M NaCl was added to each row of wells and the EGFP fluorescence emission at 516 nm was measured with excitation set at 485 nm. Z′ factor for the assay system was determined as described^74. Imax and IC50 values of inhibitors were determined using the equation, I=Imax/(1+IC50/[I]) where I and [I] indicate % inhibition and inhibitor concentration, respectively. The average and standard deviation values were obtained from triplicate determinations.

[5] = molecular target: T3, Syk WT, E164D and E164Q (Homo sapiens, UniProt P43405); assay: Phosphorylation in Syk-deficient MV4-11 cells re-expressing Syk WT or E164 mutants; assay type: cell-based; conditions: Syk WT added back to Syk-deficient AML cells; 5 μM overnight
T3 construct: When the full-length E164D and E164Q, respectively, were introduced into Syk-deficient MV4-11 cells; expressed in transfected cells; host or cells: entospletinib-resistant MV4-11 cells with shRNA knockdown of endogenous Syk
Protocol: (§2) FIGS. 5A-5B show cellular target validation of WC36. (a) Inhibition of Syk WT and WC36-binding site mutants by WC36. Entospletinib-resistant MV4-11 cells were treated with shRNA to suppress the expression of endogenous Syk and then transfected with exogenous Syk-WT and four Syk-[…] genes, respectively. These constructs harbor silent mutations to avoid gene suppression by Syk ShRNA. Phosphorylation of Syk and ERK1/2 in these cells was then monitored before and after treatment with 5 μM WC36 overnight. […] (b) Western blot analysis of WC36B-binding proteins captured by pull-down by streptavidin beads. Biotin was used as a negative control. GAPDH was used as a gel loading control.
(§3) Cells were seeded at a density of 3.0×10^5 cells/well prior to incubation with inhibitors. Cells were incubated with 1-5 μM of Syk inhibitors overnight and stimulated with different antibodies: IgG2 for AML cells, IgM for Raji B cells, and OKT3 (Biolegend) for Jurkat cells. The cells were lysed in NP40 lysis buffer (50 mM Tris, pH 7.5, 150 mM NaCl, 1 mM EDTA, 1% NP40, 10% glycerol, 10 mM NaF, 10 mM Na3VO4, and the protease inhibitor cocktail) at 4° C. and the cell debris was removed by centrifugation. Samples were analyzed by SDS-PAGE. […] The chemiluminescence intensity of protein bands in the gel was analyzed and documented by the Azure 500Q Imaging System.

[6] = tested on: Syk WT, E164D and E164Q; assay: as above; assay type: cell-based, human; conditions: Syk-deficient MV4-11 cells with full-length E164D or E164Q; 5 μM overnight
Protocol: as §2, §3

[7] = molecular target: T4, Syk (Homo sapiens, UniProt P43405); assay: Streptavidin pull down assay with WC36B in MV4-11 cells; assay type: cell-based; conditions: WC36B-streptavidin pull down
T4 construct: host or cells: MV4-11 AML cells (naive and entospletinib-resistant)
Protocol: Streptavidin-coated beads (Dynabeads™ M280 streptavidin beads; ThermoFisher) were washed twice with 1 ml of PBST (PBS+0.1% Tween 20) and resuspended in 100 μl of PBST. WC36B (or biotin) (10 mM) was added to 100 μl of the bead suspension and the mixture was incubated at room temperature for 15 min with gentle shaking. The mixture was then vortexed for 5 s and the tube was placed on a magnet for 1 min. After discarding the supernatant, the beads were resuspended in the same volume of the washing buffer. Washing is repeated three times to remove excess WC36B. WC36B-coated beads were then incubated with the cell lysate (MV-4-11) for 30 min at room temperature with gentle shaking. Protein-coated beads were separated with a magnet for 2-3 min and washed 4-5 times with PBS containing 0.1% BSA. The protein was then removed from the beads by boiling the beads in the SDS-polyacrylamide gel electrophoresis (PAGE) application buffer. Samples were concentrated for the mass spectrometry analysis and the western blot assay.

suppression of co-precipitation with Syk [2]: greatly suppressed co-precipitation
inhibition of membrane binding of Syk-cSH2 E164Q [4]: refractory to WC36 inhibition
Structure (SMILES): [N-]=[N+]=C(C(=O)OC1CCCCC1)C(Nc1ncccn1)c1c[nH]c2ccccc12 (racemic) [WC36, Cyclohexyl 2-diazo-3-(1H-indol-3-yl)-3-(pyrimidin-2-ylamino)propanoate]
development of acquired resistance [1]: could not develop resistance to WC36
suppression of the scaffolding function of Syk (co-precipitation) [3]: greatly suppressed the scaffolding function of Syk
inhibition of phosphorylation of Syk WT and ERK1/2 [5]: potently suppressed phosphorylation of Syk WT and ERK1/2
inhibition of phosphorylation of Syk E164D/E164Q and ERK1/2 [6]: did not inhibit phosphorylation of these mutants and ERK1/2
competition with WC36B for Syk binding [7]: able to compete with WC36B for Syk binding
